Results published in paper PMC4750701, “Role of Mitochondrial RNA Polymerase in the Toxicity of Nucleotide Inhibitors of Hepatitis C Virus” (Antimicrobial Agents and Chemotherapy, 2016).
Read-outs that look alike come from different tables or passages of the source.

Legend:
[1] = tested on: human erythroid progenitors (bone marrow cells); experiment: Bone marrow erythroid progenitor colony assay, 14 days; type: cell-based; conditions: read-out: Mean CC50 ± SD in Bone marrow cells Erythroid
[2] = tested on: human myeloid progenitors (bone marrow cells); experiment: Bone marrow myeloid progenitor colony assay, 14 days; type: cell-based; conditions: read-out: Mean CC50 ± SD in Bone marrow cells Myeloid
[3] = tested on: mitochondrial DNA-encoded cytochrome c oxidase (COX-1); experiment: Mitochondrial protein synthesis assay (COX-1, MitoBiogenesis in-cell ELISA) in PC-3 cells; type: cell-based, human
Procedure: (§1) PC-3 cells were treated with the compounds for 5 days and analyzed with the MitoTox MitoBiogenesis in-cell enzyme-linked immunosorbent assay (ELISA) kit (MitoSciences/Abcam, Eugene, Oregon) as described previously ([13]). The assay uses quantitative immunocytochemistry to measure the protein levels of nuclear DNA-encoded succinate dehydrogenase (SDH-A; complex II [succinate dehydrogenase]) and mitochondrial DNA-encoded cytochrome c oxidase (COX-1; complex IV [cytochrome c oxidase]) in cultured cells.

[4] = tested on: nuclear DNA-encoded succinate dehydrogenase (SDH-A); experiment: Nuclear protein synthesis (SDH-A, MitoBiogenesis in-cell ELISA) in PC-3 cells; type: cell-based, human; conditions: 5 days, read-out: Mean CC50 ± SD causing General cellular toxicity: Protein synthesis
Procedure: as §1

[5] = tested on: mitochondrial DNA in PC-3 cells and HepG2 cells; experiment: Mitochondrial DNA depletion, PC-3 versus HepG2 cells; type: cell-based, human; conditions: 10-day treatment
Text: Supplementary Fig. S1: PC-3 cells are more sensitive to ddC-induced mitochondria toxicity than HepG2 cells. (A) Levels of mitochondrial DNA in PC-3 cells (shown in […] and dashed line) and HepG2 cells (shown in • and solid line) after 10-day treatment; Levels of mitochondrial protein synthesis in PC-3 cells (B) and HepG2 cells (C) represented by COX-1 protein and nuclear protein synthesis represented by SDH-A protein after 5-day treatment. The levels of COX-1 (•), SDH-A ([…]), and ATP (<) are curve fitted to solid, dash, and dotted lines, […]

[6] = tested on: Quiescent PBMCs; experiment: Cytotoxicity in quiescent PBMCs, 5 days; conditions: read-out: Mean CC50 ± SD in PBMCs Quiescent; 5 days
Procedure: (§2) Human peripheral blood mononuclear cells (PBMCs) were isolated from human buffy coats obtained from healthy volunteers (Stanford Blood Bank, Palo Alto, CA) using standard Ficoll separation and stimulated as described elsewhere ([13]) and were tested at both quiescent and stimulated stages. Quiescent PBMCs were stimulated with 10 units per ml of recombinant human interleukin 2 (hIL-2) and 1 μg per ml phytohemagglutinin P (PHA-P) for 48 h prior to drug treatment.
(§3) All cells were cultured at 37°C in a 5% CO2 incubator with 90% humidity unless noted otherwise. […] All cells were treated with the various compounds for 5 days, except for human erythroid and myeloid progenitors, which were treated for 14 days. After the incubation period, cell viability was measured by the addition of CellTiter Glo viability reagents (Promega, Madison, WI). The luminescence signal was quantified on an Envision luminescence plate reader (PerkinElmer, Waltham, MA) after incubation of the reagents and cells for 10 min at room temperature. […] CC50 values were calculated as the average of the results of three or four independent experiments.
(§4) Human peripheral blood mononuclear cells (PBMCs) were isolated from human buffy coats
(§5) obtained from normal healthy volunteers (Stanford Medical School Blood Center, Palo Alto,
(§6) CA). Total PBMCs were isolated from buffy coats using standard Ficoll separation and sterile
(§7) cellular isolation techniques performed in a bio-safety cabinet (1). Except where noted, the
(§8) procedure was carried out at room temperature. The final PBMCs pellet was resuspended in
(§9) Logan, UT), penicillin 100 units/mL and streptomycin 100 µg/mL (Gibco). For quiescent
(§10) PBMCs cultures, total cells were seeded in 96-well plates at a density of 1 x 10^6 cells per well, followed by immediate drug treatment. Stimulated PBMCs cultures were set up by seeding the freshly isolated PBMCs in T-175cm2 tissue culture flasks in 100 mL of RPMI containing the same components as the ones used for the quiescent PBMCs but with the addition of 10 units per mL of recombinant human interleukin-2 (hIL-2, Roche, Indianapolis, IN), and 1 µg per mL phytohemagglutinin-P (PHA-P, Sigma-Aldrich, St. Louis, MO) at density of 2  10^6 cells per mL for 48 hours at 37C in a 5% CO2 incubator with 90% humidity, prior to drug treatment.

[7] = tested on: Stimulated PBMCs; experiment: Cytotoxicity in stimulated PBMCs, 5 days; conditions: read-out: Mean CC50 ± SD in PBMCs Stimulated; 5 days
Procedure: as §2, §3, §4, §5, §6, §7, §8, §9, §10

[8] = tested on: T-cells (MT-4); experiment: Cytotoxicity in MT-4 T-cells, 5-day treatment; conditions: read-out: Mean CC50 ± SD in T-cells (MT-4); 5-day treatment
Procedure: (§11) Primary human hepatocytes were from Bioreclamation IVT (Westbury, NY) or Life Technologies (Carlsbad, CA).
as §3

[9] = tested on: Fibroblasts (MRC5); experiment: Cytotoxicity in MRC5 fibroblasts, 5-day treatment; conditions: read-out: Mean CC50 ± SD in Fibroblasts (MRC5); 5-day treatment
Procedure: as §3
Cell Culture and Cytotoxicity Studies
(§12) The Huh-7 cells were maintained in growth medium containing Dulbecco's Modified Eagle
(§13) Medium (DMEM, Cellgro) supplemented with 1% Nonessential Amino Acids (NEAA, Cellgro,
(§14) Manassas, VA), 10% fetal bovine serum (FBS, HyClone, Logan, UT) and 1% Penicillin-
(§15) streptomycin-glutamate (PSG, Invitrogen, Carlsbad, CA). The cells were passaged twice weekly
(§16) and maintained at 90% confluence densities.
(§17) The HepG2 cells were maintained in Eagle’s Minimum Essential Medium (EMEM) from ATCC
(§18) (Manassas, VA) supplemented with 10% FBS, 100 units/mL penicillin and 100 µg/mL
(§19) streptomycin (P/S) (Gibco). The cells were passaged twice weekly and maintained at 90%
(§20) The PC-3 cells were maintained in Kaighn’s F12 medium (Gibco, Carlsbad, CA) supplemented
(§21) with 10% FBS (HyClone, Logan, UT), 100 units/mL penicillin and 100 µg/mL streptomycin
(§22) (P/S) (Gibco). The cells were passaged twice weekly and maintained at 90% confluence. Cells
(§23) between passages 4 and 15 were used in the assays.
(§24) The fibroblast cell line MRC-5 cell line derived from normal lung tissue, was purchased from
(§25) ATCC (Manassas, VA) and cultured in Minimum Essential Medium (MEM) (Cellgro, Manassas,
(§26) VA) supplemented with 10% FBS (HyClone, Logan, UT) and 1% PSG (Invitrogen). The cells
(§27) were passaged twice weekly and maintained at 90% confluence densities.

[10] = tested on: Primary human hepatocytes; experiment: Cytotoxicity in primary human hepatocytes, 5 days; conditions: read-out: Mean CC50 ± SD in Hepatic cells (primary); human primary hepatocytes, 5 days
Procedure: as §11, §3

[11] = tested on: Prostate cells (PC-3); experiment: Cytotoxicity / ATP level in PC-3 cells, 5-day treatment
Procedure: as §3
Cell Culture and Cytotoxicity Studies
as §12, §13, §14, §15, §16, §17, §18, §19, §20, §21, §22, §23, §24, §25, §26, §27

[12] = tested on: HepG2 (galactose); experiment: Cytotoxicity in HepG2 (galactose) cells, 5-day treatment; conditions: read-out: Mean CC50 ± SD in Hepatic cells HepG2 (galactose); 5-day treatment
Procedure: as §3
Cell Culture and Cytotoxicity Studies
as §12, §13, §14, §15, §16, §17, §18, §19, §20, §21, §22, §23, §24, §25, §26, §27

[13] = tested on: Huh7; experiment: Cytotoxicity in Huh7 cells, 5-day treatment (CellTiter Glo); conditions: read-out: Mean CC50 ± SD in Hepatic cells Huh7; 5-day treatment
[14] = tested on: mitochondrial spare respiratory capacity in PC-3 cells; experiment: Oxygen consumption rate / spare respiratory capacity in PC-3 cells; conditions: PC-3 cells
Procedure: Mitochondrial respiration was monitored by measuring the rate of oxygen consumption (OCR) of PC-3 cells after 3-day treatments with the compounds, using a Seahorse extracellular flux analyzer (XF^e-96) based on published protocols ([22][–][24]). The optimal cell seeding was determined by measuring the basal OCR of PC-3 cells that were seeded at different densities of 2.5 × 10^3, 5 × 10^3, 7.5 × 10^3, and 10 × 10^3 cells/well in XF 96-well plates (Seahorse Bioscience, North Billerica, MA) and incubated with 0.5% dimethyl sulfoxide (DMSO) for 3 days. […] Each reagent in the Mito Stress test kit (Seahorse Biosciences), i.e., ATP synthase inhibitor oligomycin, mitochondrial uncoupler carbonyl cyanide-4-(trifluoromethoxy)phenylhydrazone (FCCP), and a fixed-ratio mixture of the mitochondrial complex I (NADH dehydrogenase) inhibitor rotenone and the complex III (CoQH2-cytochrome c reductase) inhibitor antimycin A, was titrated. The lowest concentration that reached the maximal effect was chosen for each reagent. The OCR signals were normalized by cell numbers using DNA content determined by Hoechst's stain as described below.
PC-3 cells were seeded at a density of 5 × 10^3 cells/well in XF 96-well plates and incubated with the compounds for 3 days. On the day of the assay, the cell medium was replaced with XF assay medium (pH 7.4) containing 10 mM glucose and 1 mM freshly prepared pyruvate. Mitochondrial respiration was monitored by measuring OCR on a Seahorse extracellular flux analyzer (XF^e-96). All concentrations listed are the final concentration after mixing unless noted otherwise. […] Spare respiratory capacity was obtained by subtracting the rate of basal respiration from the rate of maximal respiration.
The cells were lysed by freezing at −80°C for >2 h. […] In parallel, another set of cells was treated with the compounds for 3 days and the ATP levels were measured using CellTiter Glo viability reagents (Promega, Madison, WI).

Nc1ccn([C@H]2CC[C@@H](CO)O2)c(=O)n1 [ddC, dideoxycytosine]
CC50 [1]: 1.9 ± 0.3 µM
CC50 [2]: 9.7 ± 2 µM
fold greater sensitivity of PC-3 cells than HepG2 cells to reductions in COX-1 protein expression ([3]; 5-day treatment): > 500 fold
selectivity of effect on COX-1 versus SDH-A and ATP levels ([3]; PC-3 cells, 5-day treatments): specifically inhibited COX-1 synthesis
CC50 ([3]; PC-3 cells, COX-1, 5 days, read-out: Mean CC50 ± SD causing Mitochondrial toxicity: Protein synthesis): 0.19 ± 0.07 µM
CC50 [4]: > 1 µM
fold greater sensitivity of PC-3 cells than HepG2 cells to mitochondrial DNA depletion [5]: > 30 fold
CC50 [6]: > 100 µM
CC50 [7]: > 100 µM
CC50 [8]: > 89 µM
CC50 [9]: > 89 µM
CC50 [10]: > 100 µM
CC50 ([11]; read-out: Mean CC50 ± SD causing General cellular toxicity: ATP level, PC-3 cells, 5 days): 0.8 ± 0.21 µM
CC50 ([11]; read-out: Mean CC50 ± SD in Prostate cells (PC-3), 5-day treatment): 0.8 ± 0.21 µM
CC50 [12]: > 89 µM
CC50 [13]: > 89 µM
selectivity of effect on spare respiratory capacity versus DNA and ATP levels ([14]; 3-day treatments): specifically inhibited mitochondrial spare respiratory capacity
CC50 ([14]; read-out: Mean CC50 ± SD causing Mitochondrial toxicity: Respiration, spare respiratory capacity, 3 days): 0.21 ± 0.03 µM

O=c1[nH]cc(F)c(=O)[nH]1 [5-FU, 5-flurouracil]
CC50 [1]: 3.7 ± 0.5 µM
CC50 [2]: 3.4 ± 0.8 µM
CC50 [6]: > 100 µM
CC50 [7]: > 100 µM
CC50 [10]: > 100 µM
